One test has as its system Mycobacterium aurum. Particulars: surrogate for Mycobacterium tuberculosis; cited from earlier work.
The subject of another test is M. smegmatis. As to conditions: cited from earlier work.
In a further test the target is Ag85C (Mycobacterium tuberculosis, UniProt P9WQN9). Nature of the test: 4-methylumbelliferyl butyrate. In kind it is biochemical.
A further test concerns M. tuberculosis. As to conditions: cited from earlier work.
Test [1] has as its system M. tuberculosis inside macrophages. As to conditions: 100 µM concentration; cited from earlier work.
Another test relates to synthesis of TDM. Particulars: cited from earlier work.
A further test deals with Ag85s. Particulars: screening of the NIH Clinical Collection; cited from earlier work.
Where [2] appears, read: 600 nM Ag85C, 10 mM trehalose, 100 µM 4-MUB, 37 °C, inhibitor 20-320 µM.

The structures appear in SMILES notation. Converted amounts (≈) assume the structure as drawn. Where two headings read alike, the source gives them in different places.

Sequence of Ag85C (P9WQN9 46-340): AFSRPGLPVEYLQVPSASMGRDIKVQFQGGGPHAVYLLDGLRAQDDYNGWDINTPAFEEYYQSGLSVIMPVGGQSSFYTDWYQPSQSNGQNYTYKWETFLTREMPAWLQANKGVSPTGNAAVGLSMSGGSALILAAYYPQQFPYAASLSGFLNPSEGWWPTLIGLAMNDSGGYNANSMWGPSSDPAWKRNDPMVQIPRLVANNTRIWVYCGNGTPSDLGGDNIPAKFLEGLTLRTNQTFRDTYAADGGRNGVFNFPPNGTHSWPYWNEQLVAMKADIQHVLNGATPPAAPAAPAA

For the compound `[N-]=[N+]=NC[C@H]1O[C@H](O[C@H]2O[C@H](CO)[C@@H](O)[C@H](O)[C@H]2O)[C@H](O)[C@@H](O)[C@@H]1O` [6-azido-6-deoxytrehalose], the “growth inhibition of Mycobacterium aurum” value in the test with Mycobacterium aurum is reported as “completely inhibit the growth”.
Turning to `N#Cc1c(N)sc2c1CCCC2` [Compound 1b, 2-Amino-4,5,6,7-tetrahydrobenzo[b]thiophene-3-carbonitrile], in the test on M. smegmatis, the MIC was 50 to 100 µg/mL.
On Ag85C (setting [2]), `CCOC(=O)c1c(NC(=O)CSCC2OC(OC)C(O)C2O)sc2c1CCCC2` [Compound 13a, Ethyl 2-(methyl 5-thio-α-D-arabinofuranoside-5-S-yl)acetamido-4,5,6,7-tetrahydrobenzo[b]thiophene-3-carboxylate] yielded an inhibition constant (Ki) of 18.2 µM.
The same measure, in the same setting: to `CO[C@H]1O[C@H](CSCC(=O)Nc2sc3c(c2C#N)CCCC3)[C@@H](O)[C@@H]1O` [Compound 13b, N-(3-cyano-4,5,6,7-tetrahydrobenzo[b]thiophen-2-yl)-2-(methyl 5-thio-α-D-arabinofuranoside-5-S-yl)acetamide] belongs 34.8 µM; to `CCOC(=O)c1c(NC(=O)C(CC)SC[C@H]2O[C@H](OC)[C@@H](O)[C@@H]2O)sc2c1CCCC2` (stereo partly drawn) [Compound 13c, Ethyl 2-(methyl 5-thio-α-D-arabinofuranoside-5-S-yl)butamido-4,5,6,7-tetrahydrobenzo[b]thiophene-3-carboxylate], 71 µM.
`COC1O[C@H](CSCCn2c(=O)[nH]c3sc4c(c3c2=O)CCCC4)[C@@H](O)[C@@H]1O` (stereo partly drawn) [Compound 14, Methyl 5-S-[2-(2,4-dioxo-1,4,5,6,7,8-hexahydro[1]benzothieno[2,3-d]-pyrimidin-3(2H)-yl)ethyl]-5-thioarabinofuranoside]: at Ag85C, affinity was put at a Ki of 47.1 µM.
Turning to `CCCC1CCc2c(sc(N)c2C#N)C1` (centres unmarked) [Compound I3-AG85, 2-amino-6-propyl-4,5,6,7-tetrahydro-1-benzothiophene-3-carbonitrile], the “concentration inhibiting growth of MDR and XDR strains” value in the test with M. tuberculosis (7 MDR and 3 XDR M. tuberculosis strains) is on record as at most 200 µM. The MIC in the test on M. tuberculosis (M. tuberculosis) is given as 100 µg/mL (≈ 454 µM). For the same compound, the “survival of M. tuberculosis inside macrophages” value in test [1] is given as “reduced survival”. For the same compound, the “inhibition of the synthesis of TDM” value in the test on synthesis of TDM was “inhibit the synthesis of TDM”.
As to `O=c1c2ccccc2[se]n1-c1ccccc1` [ebselen], in the test with Ag85s, the “inhibition of Ag85s” value is “nM inhibitor”.

The term MIC denotes the least concentration at which growth counts as inhibited. The term Ki denotes the dissociation constant of the complex between target and ligand, obtained from inhibition or displacement.

The values above are taken from publication PMC3548330 (Bioconjugate chemistry, 2012).
